Measurements published in patent US20240116988A1, “ANTI-ROR1 MACROCYCLIC PEPTIDES AND COMPOSITIONS” (BRISTOL-MYERS SQUIBB COMPANY, priority 2022, published 2024).
Starred links: 1 amine or outer side, 2 acyl side, 3 side chain; linkers in the order of their positions; H or OH if unused. Positions of bridges follow the written chain, without caps; N, C: chain ends. Non-standard residues stand in square brackets, D forms with d. Residues, ends and D or L forms follow the SMILES beside them. ξ: configuration not given here. X1 = CC(C)[C@H](CC(=O)[C@@H](N[*:1])C(C)C)C(=O)[*:2]; 2Nal = N[C@@H](Cc1ccc2ccccc2c1)C(=O)O; NMeF = CN[C@@H](Cc1ccccc1)C(=O)O; Thr(3ξ) = CC(O)[C@H](N)C(=O)O; ξY = NC(Cc1ccc(O)cc1)C(=O)O; ξF = NC(Cc1ccccc1)C(=O)O; AEEA = NCCOCCOCC(=O)O; ξL = CC(C)CC(N)C(=O)O; ξC = NC(CS)C(=O)O; Sar = CNCC(=O)O

Target: T1, human ROR1 (Homo sapiens, UniProt Q01973)
T1 construct: host or cells: HEK 293T cells, Tet-on system induced with doxycycline
T1 sequence (Q01973 30-937): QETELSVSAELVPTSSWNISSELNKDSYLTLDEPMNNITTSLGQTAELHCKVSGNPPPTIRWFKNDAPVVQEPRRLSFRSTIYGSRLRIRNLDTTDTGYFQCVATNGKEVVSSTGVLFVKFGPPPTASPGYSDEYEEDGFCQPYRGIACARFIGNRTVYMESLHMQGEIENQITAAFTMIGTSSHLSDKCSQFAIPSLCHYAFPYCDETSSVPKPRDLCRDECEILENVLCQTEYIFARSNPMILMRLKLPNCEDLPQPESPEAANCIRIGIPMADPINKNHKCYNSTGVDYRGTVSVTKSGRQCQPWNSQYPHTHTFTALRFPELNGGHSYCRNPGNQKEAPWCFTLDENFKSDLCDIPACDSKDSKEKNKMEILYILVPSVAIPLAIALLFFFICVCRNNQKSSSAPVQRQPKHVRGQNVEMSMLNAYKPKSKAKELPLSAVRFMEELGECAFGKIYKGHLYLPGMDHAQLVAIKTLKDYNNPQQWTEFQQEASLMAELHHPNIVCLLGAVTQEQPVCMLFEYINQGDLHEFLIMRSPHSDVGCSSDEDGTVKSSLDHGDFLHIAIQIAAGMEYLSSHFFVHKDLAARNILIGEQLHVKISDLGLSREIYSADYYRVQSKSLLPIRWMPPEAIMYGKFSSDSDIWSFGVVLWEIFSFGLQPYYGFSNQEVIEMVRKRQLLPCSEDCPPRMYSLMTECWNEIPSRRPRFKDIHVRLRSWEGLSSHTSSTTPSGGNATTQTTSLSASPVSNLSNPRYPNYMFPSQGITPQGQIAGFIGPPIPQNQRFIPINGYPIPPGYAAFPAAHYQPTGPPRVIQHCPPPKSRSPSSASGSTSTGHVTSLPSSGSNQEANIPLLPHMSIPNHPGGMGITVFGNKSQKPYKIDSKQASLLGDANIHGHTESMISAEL
Experiment: ROR1 high content cell-based binding assay
Details: read-out: ROR1 Binding 293T Human HC Cell Based Assay IC50
Outline: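 Doxycycline-induced 293T cells expressing human ROR1, seeded overnight, were treated with compound plus 5-FAM-labeled ROR1-binding probe peptide (30 nM final) for 1 h at 37 °C. After washing and formaldehyde/Hoechst fixation, cell-bound probe fluorescence was read by high-content imaging.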

Structure (SMILES) | IC50 [nM]
CC(C)C[C@@H]1NC(=O)[C@H](Cc2ccc(O)cc2)NC(=O)[C@H](Cc2ccc3ccccc3c2)NC(=O)CSC[C@@H](C(=O)NCC(N)=O)NC(=O)[C@H](CC(C)C)NC(=O)[C@H](Cc2ccccc2)N(C)C(=O)[C@H](Cc2ccc(O)cc2)NC(=O)[C@H](Cc2c[nH]c3ccccc23)NC(=O)CNC(=O)[C@H](CO)NC(=O)[C@H](Cc2ccc(O)cc2)NC(=O)[C@H](C(C)C)NC1=O [Example 1092] ({CH2CO}-[2Nal]YLVYSGWY[NMeF]LCG-NH2; thioether N-12) | 43
CC(C)C[C@@H]1NC(=O)[C@H](Cc2ccc(O)cc2)NC(=O)[C@H](Cc2ccccc2)NC(=O)CSC[C@@H](C(=O)NCC(N)=O)NC(=O)[C@H](CC(C)C)NC(=O)[C@H](Cc2ccccc2)N(C)C(=O)[C@H](Cc2ccc(O)cc2)NC(=O)[C@H](Cc2c[nH]c3ccccc23)NC(=O)CNC(=O)[C@H](CCCCN)NC(=O)[C@H](Cc2ccc(O)cc2)NC(=O)[C@H](C(C)C)NC1=O [Example 1019] ({CH2CO}-FYLVYKGWY[NMeF]LCG-NH2; thioether N-12) | 27
CC(C)C[C@@H]1NC(=O)[C@H](Cc2c[nH]c3ccccc23)NC(=O)[C@H](Cc2ccccc2)NC(=O)[C@H](Cc2c[nH]c3ccccc23)NC(=O)CNC(=O)[C@H](CO)NC(=O)[C@H](Cc2ccc(O)cc2)NC(=O)[C@H](C(C)C)NC(=O)[C@H](CCCNC(=N)N)NC(=O)[C@H](Cc2ccccc2)NC(=O)[C@H](Cc2ccccc2)NC(=O)CSC[C@@H](C(N)=O)NC1=O [Example 1014] ({CH2CO}-FFRVYSGWFWLC-NH2; thioether N-12) | 707
CC(C)[C@@H]1NC(=O)CN(C)C(=O)[C@H](CCCNC(=N)N)NC(=O)[C@H](Cc2ccccc2)NC(=O)CSC[C@@H](C(N)=O)NC(=O)[C@H](C(C)C)NC(=O)[C@H](Cc2c[nH]c3ccccc23)NC(=O)[C@H](Cc2ccc(O)cc2)NC(=O)[C@H](Cc2c[nH]c3ccccc23)NC(=O)CNC(=O)[C@H](Cc2c[nH]c3ccccc23)NC(=O)[C@H](CCCNC(=N)N)NC1=O [Example 1097] ({CH2CO}-FR[Sar]VRWGWYWVC-NH2; thioether N-12) | 63
CC(C)[C@@H]1NC(=O)[C@H](Cc2c[nH]c3ccccc23)NC(=O)[C@H](Cc2ccc(O)cc2)NC(=O)[C@H](Cc2c[nH]c3ccccc23)NC(=O)CNC(=O)[C@H](Cc2c[nH]c3ccccc23)NC(=O)[C@H](CCCNC(=N)N)NC(=O)[C@H](C(C)C)NC(=O)[C@H](Cc2ccccc2)N(C)C(=O)[C@H](CCCNC(=N)N)NC(=O)[C@H](Cc2ccccc2)NC(=O)CSC[C@@H](C(=O)NCCOCCOCC(=O)O)NC1=O [Example 1091] ({CH2CO}-FR[NMeF]VRWGWYWVC[AEEA]-OH; thioether N-12) | 565
CC(C)CC1NC(=O)[C@H](Cc2ccc(O)cc2)NC(=O)[C@H](C(C)C)NC(=O)CSC[C@@H](C(=O)NCC(N)=O)NC(=O)[C@H](CC(C)C)NC(=O)[C@H](Cc2ccccc2)N(C)C(=O)[C@H](Cc2ccc(O)cc2)NC(=O)[C@H](Cc2c[nH]c3ccccc23)NC(=O)CNC(=O)[C@H](CO)NC(=O)[C@H](Cc2ccc(O)cc2)NC(=O)[C@H](C(C)C)NC1=O (some centres unmarked) [Example 1074] ({CH2CO}-VY[ξL]VYSGWY[NMeF]LCG-NH2; thioether N-12) | 122
CC(C)C[C@@H]1NC(=O)[C@H](Cc2ccc(O)cc2)NC(=O)[C@H](Cc2ccccc2)NC(=O)CSC[C@@H](C(=O)NCC(N)=O)NC(=O)[C@H](CC(C)C)NC(=O)[C@H](Cc2ccccc2)N(C)C(=O)[C@H](Cc2ccc(O)cc2)NC(=O)[C@H](Cc2c[nH]c3ccccc23)NC(=O)CNC(=O)[C@H](CCC(N)=O)NC(=O)[C@H](Cc2ccc(O)cc2)NC(=O)[C@H](C(C)C)NC1=O [Example 1016] ({CH2CO}-FYLVYQGWY[NMeF]LCG-NH2; thioether N-12) | 7
CC(C)C[C@@H]1NC(=O)[C@H](Cc2c[nH]c3ccccc23)NC(=O)[C@H](Cc2ccccc2)NC(=O)[C@H](Cc2c[nH]c3ccccc23)NC(=O)CNC(=O)[C@H](CC(=O)O)NC(=O)[C@H](CCCNC(=N)N)NC(=O)[C@H](C(C)C)CC(=O)[C@H](C(C)C)NC(=O)[C@H](Cc2ccc(O)cc2)NC(=O)[C@H](Cc2ccccc2)NC(=O)CSC[C@@H](C(=O)NCC(N)=O)NC1=O [Example 1011] ({CH2CO}-FY[X1]RDGWFWLCG-NH2; thioether N-11) | 168
CC(C)C[C@@H]1NC(=O)[C@H](Cc2c[nH]c3ccccc23)NC(=O)[C@H](Cc2ccc(O)cc2)NC(=O)[C@H](Cc2c[nH]c3ccccc23)NC(=O)CNC(=O)[C@H](CO)NC(=O)[C@H](Cc2ccc(O)cc2)NC(=O)[C@H](C(C)C)NC(=O)[C@@H]2CCCN2C(=O)[C@H](Cc2ccc(O)cc2)NC(=O)[C@H](Cc2ccccc2)NC(=O)CSC[C@@H](C(N)=O)NC1=O [Example 1095] ({CH2CO}-FYPVYSGWYWLC-NH2; thioether N-12) | 11

Second part, the molecule after the results:

IC50 [nM] | Structure (SMILES)
31 | CC(C)C[C@@H]1NC(=O)[C@H](CC(N)=O)NC(=O)[C@H](Cc2ccccc2)N(C)C(=O)CNC(=O)[C@H](Cc2ccc(O)cc2)NC(=O)[C@H](Cc2ccccc2)NC(=O)CSCC(C(N)=O)NC(=O)[C@H](Cc2c[nH]c3ccccc23)NC(=O)[C@H](Cc2ccccc2)NC1=O (some centres unmarked) [Example 1104] ({CH2CO}-FYG[NMeF]NLFW[ξC]-NH2; thioether N-9)
59 | CC(C)C[C@@H]1NC(=O)[C@H](Cc2ccc(O)cc2)NC(=O)[C@H](Cc2ccccc2)NC(=O)CSC[C@@H](C(=O)NCC(N)=O)NC(=O)[C@H](CC(C)C)NC(=O)[C@H](Cc2ccccc2)N(C)C(=O)[C@H](Cc2ccc(O)cc2)NC(=O)[C@H](Cc2c[nH]c3ccccc23)NC(=O)CNC(=O)[C@H](CO)NC(=O)[C@H](Cc2ccccc2)NC(=O)[C@H](C(C)C)NC1=O [Example 1035] ({CH2CO}-FYLVFSGWY[NMeF]LCG-NH2; thioether N-12)
251 | CC(C)C[C@@H]1NC(=O)[C@H](Cc2ccc(O)cc2)NC(=O)[C@H](C)NC(=O)CSC[C@@H](C(=O)NCC(N)=O)NC(=O)[C@H](CC(C)C)NC(=O)[C@H](Cc2ccccc2)N(C)C(=O)[C@H](Cc2ccc(O)cc2)NC(=O)[C@H](Cc2c[nH]c3ccccc23)NC(=O)CNC(=O)[C@H](CO)NC(=O)[C@H](Cc2ccc(O)cc2)NC(=O)[C@H](C(C)C)NC1=O [Example 1037] ({CH2CO}-AYLVYSGWY[NMeF]LCG-NH2; thioether N-12)
12 | CC(C)C[C@@H]1NC(=O)[C@H](Cc2ccc(O)cc2)NC(=O)[C@H](Cc2ccccc2)NC(=O)CSC[C@@H](C(=O)NCC(N)=O)NC(=O)[C@H](CC(C)C)NC(=O)[C@H](Cc2ccccc2)N(C)C(=O)[C@H](Cc2ccc(O)cc2)NC(=O)[C@H](Cc2c[nH]c3ccccc23)NC(=O)CNC(=O)[C@H](CO)NC(=O)[C@H](Cc2ccc(O)cc2)NC(=O)[C@H](C)NC1=O [Example 1041] ({CH2CO}-FYLAYSGWY[NMeF]LCG-NH2; thioether N-12)
147 | CC(C)C[C@@H]1NC(=O)[C@H](Cc2ccc(O)cc2)NC(=O)[C@H](Cc2ccccc2)N(C)C(=O)CNC(=O)[C@H](Cc2ccc(O)cc2)NC(=O)C(Cc2ccccc2)NC(=O)CSC[C@@H](C(=O)NCC(N)=O)NC(=O)[C@H](Cc2c[nH]c3ccccc23)NC(=O)C(Cc2ccc(O)cc2)NC1=O (some centres unmarked) [Example 1112] ({CH2CO}-[ξF]YG[NMeF]YL[ξY]WCG-NH2; thioether N-9)
22 | CC(C)C[C@@H]1NC(=O)[C@H](Cc2ccc(O)cc2)NC(=O)[C@H](Cc2ccccc2)NC(=O)CSC[C@@H](C(=O)NCC(N)=O)NC(=O)CNC(=O)[C@H](Cc2ccccc2)N(C)C(=O)[C@H](Cc2ccc(O)cc2)NC(=O)[C@H](Cc2c[nH]c3ccccc23)NC(=O)CNC(=O)[C@H](CO)NC(=O)[C@H](Cc2ccc(O)cc2)NC(=O)[C@H](C(C)C)NC1=O [Example 1065] ({CH2CO}-FYLVYSGWY[NMeF]GCG-NH2; thioether N-12)
470 | CC(C)C[C@@H]1NC(=O)[C@H](C(C)O)NC(=O)[C@H](Cc2ccccc2)N(C)C(=O)CNC(=O)[C@H](Cc2ccc(O)cc2)NC(=O)[C@H](Cc2ccccc2)NC(=O)CSC[C@@H](C(N)=O)NC(=O)[C@H](Cc2c[nH]c3ccccc23)NC(=O)[C@H](Cc2ccc(O)cc2)NC1=O (some centres unmarked) [Example 1114] ({CH2CO}-FYG[NMeF][Thr(3ξ)]LYWC-NH2; thioether N-9)
5 | CC(C)C[C@@H]1NC(=O)[C@H](Cc2ccc(O)cc2)NC(=O)[C@H](Cc2ccccc2)NC(=O)CSC[C@@H](C(=O)NCC(N)=O)NC(=O)[C@H](CC(C)C)NC(=O)[C@H](Cc2ccccc2)N(C)C(=O)[C@H](Cc2ccc(O)cc2)NC(=O)[C@H](Cc2c[nH]c3ccccc23)NC(=O)CNC(=O)[C@H](CC(N)=O)NC(=O)[C@H](Cc2ccc(O)cc2)NC(=O)[C@H](C(C)C)NC1=O [Example 1021] ({CH2CO}-FYLVYNGWY[NMeF]LCG-NH2; thioether N-12)
38 | CC(C)C[C@@H]1NC(=O)[C@H](Cc2ccc(O)cc2)NC(=O)[C@H](C(C)C)NC(=O)[C@H](CC(C)C)NC(=O)[C@H](Cc2ccc(O)cc2)NC(=O)[C@H](Cc2ccccc2)NC(=O)CSC[C@@H](C(=O)NCC(N)=O)NC(=O)[C@H](CC(C)C)NC(=O)[C@H](Cc2ccccc2)N(C)C(=O)[C@H](Cc2ccc(O)cc2)NC(=O)[C@H](Cc2c[nH]c3ccccc23)NC(=O)CNC1=O [Example 1044] ({CH2CO}-FYLVYLGWY[NMeF]LCG-NH2; thioether N-12)
483 | CC(C)C[C@@H]1NC(=O)[C@H](CC(C)C)NC(=O)[C@H](Cc2ccccc2)N(C)C(=O)CNC(=O)[C@H](Cc2ccc(O)cc2)NC(=O)[C@H](Cc2ccccc2)NC(=O)CSC[C@@H](C(N)=O)NC(=O)[C@H](Cc2c[nH]c3ccccc23)NC(=O)[C@H](Cc2ccc(O)cc2)NC1=O [Example 1106] ({CH2CO}-FYG[NMeF]LLYWC-NH2; thioether N-9)
14 | CC(C)C[C@@H]1NC(=O)[C@H](Cc2ccc(O)cc2)NC(=O)[C@H](Cc2ccccc2)NC(=O)CSC[C@@H](C(=O)NCC(N)=O)NC(=O)[C@H](CC(C)C)NC(=O)[C@H](Cc2ccccc2)N(C)C(=O)[C@H](Cc2ccc(O)cc2)NC(=O)[C@H](Cc2c[nH]c3ccccc23)NC(=O)CNC(=O)[C@H](CC(=O)O)NC(=O)[C@H](Cc2ccc(O)cc2)NC(=O)[C@H](C(C)C)NC1=O [Example 1017] ({CH2CO}-FYLVYDGWY[NMeF]LCG-NH2; thioether N-12)
